Reference: ChEMBL document CHEMBL5137036, “Design and synthesis of highly TRAIL expression HDAC inhibitors based on ONC201 to promote apoptosis of colorectal cancer” (Eur J Med Chem, 2022)
Active and inactive are the calls of the source. No cut-off for these calls is given here.

Columns and labels:
HCT-116 [1] = assay: Induction of apoptosis in human HCT-116 cells assessed as late apoptotic cells at 0.25 uM incubated for 24 hrs by AnnexinV-FITC/PI staining based flow cytometry (reference value: 0.82 %); format: functional
HepG2 = assay: Antiproliferative activity against human HepG2 cells assessed as inhibition of cell growth incubated for 72 hrs by luminescence based analysis; format: functional; conditions: HepG2, 72 h
HCT-116 [2] = assay: Induction of apoptosis in human HCT-116 cells assessed as decrease in Bcl2 protein expression incubated for 12 hrs by Western blot analysis; format: functional, cell-based; conditions: dose 0.125-0.5 µM, DDE = dose-dependent effect
HCT-116 [3] = assay: Upregulation of TRAIL mRNA expression in human HCT-116 cells at 0.25 uM incubated for 12 hrs by RT-PCR analysis; format: functional, cell-based
Histone deacetylase 2 = Histone deacetylase 2 (Homo sapiens, UniProt Q92769); assay: Inhibition of human HDAC2 using RHKKAc fluorogenic peptide as substrate preincubated for 10 mins followed by substrate addition by fluorescence based analysis
Histone deacetylase 1 [4] = target: T1, Histone deacetylase 1 (Homo sapiens, UniProt Q13547); assay: Inhibition of HDAC1 in human HCT-116 cells assessed as increase in TRAIL protein expression at 0.5 uM incubated for 12 hrs by Western blot analysis; format: cell-based
[5] = Toxicity in BALB/c mouse xenografted with human HCT-116 cells assessed as morphological changes in liver at 12.5 to 25 mg/kg, po qd administered for 21 days by H & E staining based microscopic analysis; format: organism-based; conditions: in vivo, 504 h, dose 12.5-25 mg/kg, time 21 day
HCT-116 [6] = assay: Induction of apoptosis in human HCT-116 cells assessed as late apoptotic cells at 0.5 uM incubated for 24 hrs by AnnexinV-FITC/PI staining based flow cytometry (reference value: 0.82 %); format: functional
HCT-116 [7] = assay: Induction of apoptosis in human HCT-116 cells assessed as dead cells at 0.5 uM incubated for 24 hrs by AnnexinV-FITC/PI staining based flow cytometry (reference value: 4.62 %); format: functional
HCT-116 [8] = assay: Effect on TRAIL protein expression in human HCT-116 cells incubated for 12 hrs by Western blot analysis; format: functional, cell-based; conditions: dose 0.125-0.5 µM, DDE = dose-dependent effect
[9] = Toxicity in BALB/c mouse xenografted with human HCT-116 cells assessed as morphological changes in lung at 12.5 to 25 mg/kg, po qd administered for 21 days by H & E staining based microscopic analysis; format: organism-based; conditions: in vivo, 504 h, dose 12.5-25 mg/kg, time 21 day
Histone deacetylase 11 = target: T2, Histone deacetylase 11 (Homo sapiens, UniProt Q96DB2); assay: Inhibition of human HDAC11 using Boc-Lys(trifluoroacetyl)-AMC as fluorogenic substrate preincubated for 10 mins followed by substrate addition by fluorescence based analysis
T2 sequence (Q96DB2 whole entry): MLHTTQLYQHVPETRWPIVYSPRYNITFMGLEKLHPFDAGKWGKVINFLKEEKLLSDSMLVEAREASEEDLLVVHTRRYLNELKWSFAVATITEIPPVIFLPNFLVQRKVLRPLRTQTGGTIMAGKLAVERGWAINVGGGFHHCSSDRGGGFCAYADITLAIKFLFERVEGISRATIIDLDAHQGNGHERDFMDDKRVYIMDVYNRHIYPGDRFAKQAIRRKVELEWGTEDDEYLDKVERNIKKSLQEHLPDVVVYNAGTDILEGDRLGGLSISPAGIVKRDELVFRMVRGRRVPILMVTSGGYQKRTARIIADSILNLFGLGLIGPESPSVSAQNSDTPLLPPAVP

Histone deacetylase 8 = target: T3, Histone deacetylase 8 (Homo sapiens, UniProt Q9BY41); assay: Inhibition of human HDAC8 using RHKAcKAc as fluorogenic substrate preincubated for 10 mins followed by substrate addition by fluorescence based analysis
T3 sequence (Q9BY41 whole entry): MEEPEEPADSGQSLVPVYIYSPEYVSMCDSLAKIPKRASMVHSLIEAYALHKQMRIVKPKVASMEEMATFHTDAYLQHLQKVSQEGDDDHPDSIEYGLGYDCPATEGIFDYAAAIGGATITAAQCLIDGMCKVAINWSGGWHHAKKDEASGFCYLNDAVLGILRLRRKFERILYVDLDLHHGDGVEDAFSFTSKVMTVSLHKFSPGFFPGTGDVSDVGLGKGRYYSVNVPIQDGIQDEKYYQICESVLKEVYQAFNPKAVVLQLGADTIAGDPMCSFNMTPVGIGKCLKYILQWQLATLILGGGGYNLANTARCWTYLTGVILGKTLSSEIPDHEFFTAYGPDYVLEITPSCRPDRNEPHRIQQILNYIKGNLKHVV

Histone deacetylase 1 [10] = target: T1, Histone deacetylase 1; assay: Inhibition of HDAC1 in human HCT-116 cells assessed as increase in Ac-H4 acetylation at 0.5 uM incubated for 12 hrs by Western blot analysis; format: cell-based
HCT-116 [11] = assay: Antitumor activity against human HCT-116 cells xenografted in BALB/c mouse assessed as reduction in tumor growth at 12.5 mg/kg, po qd administered for 3 weeks and measured every 3 days by vernier caliper analysis; format: functional, organism-based
HCT-116 [12] = assay: Induction of apoptosis in human HCT-116 cells assessed as viable cells at 0.25 uM incubated for 24 hrs by AnnexinV-FITC/PI staining based flow cytometry (reference value: 93.64%); format: functional; conditions: read-out: Activity
HCT-116 [13] = assay: Antitumor activity against human HCT-116 cells xenografted in BALB/c mouse assessed as reduction in tumor growth by measuring T/C ratio at 25 mg/kg, po qd administered for 3 weeks and measured every 3 days by vernier caliper analysis; format: functional
Histone deacetylase 1 [14] = target: T1, Histone deacetylase 1; assay: Inhibition of HDAC1 in human HCT-116 cells assessed as increase in DR5 protein expression at 0.5 uM incubated for 12 hrs by Western blot analysis; format: cell-based
MV4-11 = assay: Antiproliferative activity against human MV4-11 cells assessed as inhibition of cell growth incubated for 72 hrs by luminescence based analysis; format: functional; conditions: MV4-11, 72 h
Histone deacetylase 4 = Histone deacetylase 4 (Homo sapiens, UniProt P56524); assay: Inhibition of human HDAC4 using Boc-Lys(trifluoroacetyl)-AMC as fluorogenic substrate preincubated for 10 mins followed by substrate addition by fluorescence based analysis
[15] = Toxicity in BALB/c mouse xenografted with human HCT-116 cells assessed as morphological changes in heart at 12.5 to 25 mg/kg, po qd administered for 21 days by H & E staining based microscopic analysis; format: organism-based; conditions: in vivo, 504 h, dose 12.5-25 mg/kg, time 21 day
HCT-116 [16] = assay: Effect on ac-H3 protein expression in human HCT-116 cells incubated for 12 hrs by Western blot analysis; format: functional, cell-based; conditions: dose 0.125-0.5 µM, DDE = dose-dependent effect
HCT-116 [17] = assay: Upregulation of DR5 mRNA expression in human HCT-116 cells at 0.25 uM incubated for 12 hrs by RT-PCR analysis; format: functional, cell-based
[18] = Toxicity in BALB/c mouse xenografted with human HCT-116 cells assessed as morphological changes in kidney at 12.5 to 25 mg/kg, po qd administered for 21 days by H & E staining based microscopic analysis; format: organism-based; conditions: in vivo, 504 h, dose 12.5-25 mg/kg, time 21 day
HCT-116 [19] = assay: Antiproliferative activity against human HCT-116 cells assessed as inhibition of cell growth incubated for 72 hrs by luminescence based analysis; format: functional; conditions: HCT-116, 72 h
Histone deacetylase 1 [20] = target: T1, Histone deacetylase 1; assay: Inhibition of human HDAC1 using RHKKAc fluorogenic peptide as substrate preincubated for 10 mins followed by substrate addition by fluorescence based analysis

T1 sequence (Q13547 whole entry): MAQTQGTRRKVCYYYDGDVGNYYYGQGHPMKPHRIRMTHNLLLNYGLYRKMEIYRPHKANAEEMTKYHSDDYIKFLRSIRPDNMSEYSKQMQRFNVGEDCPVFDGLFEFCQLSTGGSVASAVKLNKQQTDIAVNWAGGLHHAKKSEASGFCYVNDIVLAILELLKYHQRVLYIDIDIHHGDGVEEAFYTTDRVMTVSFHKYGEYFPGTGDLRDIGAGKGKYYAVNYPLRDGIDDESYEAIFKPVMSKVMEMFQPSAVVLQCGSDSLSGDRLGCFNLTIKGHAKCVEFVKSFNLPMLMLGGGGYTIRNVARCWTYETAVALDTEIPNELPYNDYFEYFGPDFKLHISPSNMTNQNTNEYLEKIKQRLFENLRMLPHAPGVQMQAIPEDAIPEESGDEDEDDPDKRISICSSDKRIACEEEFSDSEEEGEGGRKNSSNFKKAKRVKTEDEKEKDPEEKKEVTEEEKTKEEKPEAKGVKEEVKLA
Chain of Histone deacetylase 4 (P56524 whole entry): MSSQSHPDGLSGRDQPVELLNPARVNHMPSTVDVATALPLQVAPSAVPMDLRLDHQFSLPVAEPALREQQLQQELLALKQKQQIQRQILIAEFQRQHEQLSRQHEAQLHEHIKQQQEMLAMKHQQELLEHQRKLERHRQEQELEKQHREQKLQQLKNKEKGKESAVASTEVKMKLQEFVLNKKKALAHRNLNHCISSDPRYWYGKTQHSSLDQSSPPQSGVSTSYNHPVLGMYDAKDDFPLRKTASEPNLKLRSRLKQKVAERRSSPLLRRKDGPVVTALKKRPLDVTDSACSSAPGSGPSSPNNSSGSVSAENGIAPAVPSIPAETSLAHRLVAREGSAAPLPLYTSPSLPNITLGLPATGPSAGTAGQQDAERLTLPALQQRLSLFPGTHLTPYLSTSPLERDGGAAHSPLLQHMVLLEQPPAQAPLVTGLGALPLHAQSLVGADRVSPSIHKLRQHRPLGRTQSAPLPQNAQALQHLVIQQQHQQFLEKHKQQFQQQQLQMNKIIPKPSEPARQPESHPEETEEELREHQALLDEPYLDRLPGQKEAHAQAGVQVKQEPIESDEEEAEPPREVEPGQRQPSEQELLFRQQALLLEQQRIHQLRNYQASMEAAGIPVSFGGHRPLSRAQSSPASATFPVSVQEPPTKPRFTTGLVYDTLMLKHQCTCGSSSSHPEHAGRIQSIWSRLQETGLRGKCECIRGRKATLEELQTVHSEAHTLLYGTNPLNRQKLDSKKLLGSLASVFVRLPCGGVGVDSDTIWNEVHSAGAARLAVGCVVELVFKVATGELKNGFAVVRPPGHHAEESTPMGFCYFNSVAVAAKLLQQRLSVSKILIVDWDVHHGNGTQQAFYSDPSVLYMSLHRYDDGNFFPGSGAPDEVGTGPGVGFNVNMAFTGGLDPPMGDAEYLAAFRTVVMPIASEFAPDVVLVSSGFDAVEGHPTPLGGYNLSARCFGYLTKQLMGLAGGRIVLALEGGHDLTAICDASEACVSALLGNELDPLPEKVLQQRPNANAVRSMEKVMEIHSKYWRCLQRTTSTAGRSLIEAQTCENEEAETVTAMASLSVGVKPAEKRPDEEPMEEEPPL
Chain of Histone deacetylase 2 (Q92769 whole entry): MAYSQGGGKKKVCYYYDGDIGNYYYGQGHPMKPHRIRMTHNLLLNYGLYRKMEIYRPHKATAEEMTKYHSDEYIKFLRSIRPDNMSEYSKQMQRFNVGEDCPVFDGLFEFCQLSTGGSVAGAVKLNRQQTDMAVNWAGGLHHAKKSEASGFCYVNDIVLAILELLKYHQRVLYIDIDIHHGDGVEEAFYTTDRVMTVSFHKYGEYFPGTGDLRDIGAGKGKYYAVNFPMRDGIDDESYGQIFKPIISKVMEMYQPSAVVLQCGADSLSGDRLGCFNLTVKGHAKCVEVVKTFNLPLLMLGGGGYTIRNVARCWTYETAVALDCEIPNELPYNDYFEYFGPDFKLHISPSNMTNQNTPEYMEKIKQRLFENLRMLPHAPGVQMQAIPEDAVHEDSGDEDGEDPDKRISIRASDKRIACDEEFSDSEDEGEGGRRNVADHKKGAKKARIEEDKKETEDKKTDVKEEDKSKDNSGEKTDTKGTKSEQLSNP

Compound: COc1ccccc1CN1C(=O)C2=C(CCN(Cc3ccc(C(=O)Nc4ccccc4N)cc3)C2)N2CCN=C12
- Activity (HCT-116 [1]): 1.82%
- IC50 (HepG2): 2670 nM
- Activity (HCT-116 [2]): Dde
- Activity (HCT-116 [3]): Active
- IC50 (Histone deacetylase 2): 346 nM
- inhibition (Histone deacetylase 1 [4]): Active
- Activity [5]: Non-Toxic
- Activity (HCT-116 [6]): 2%
- Activity (HCT-116 [7]): 9.59%
- Activity (HCT-116 [8]): Dde
- Activity [9]: Non-Toxic
- IC50 (Histone deacetylase 11): > 10 µM
- IC50 (Histone deacetylase 8): > 10 µM
- inhibition (Histone deacetylase 1 [10]): Active
- Activity (HCT-116 [11]): Active
- viability at 0.25 µM (HCT-116 [12]): 93%
- T/C (HCT-116 [13]): 0.33
- inhibition (Histone deacetylase 1 [14]): Active
- IC50 (MV4-11): 563 nM
- IC50 (Histone deacetylase 4): > 10 µM
- Activity [15]: Non-Toxic
- Activity (HCT-116 [16]): Dde
- Activity (HCT-116 [17]): Active
- Activity [18]: Non-Toxic
- IC50 (HCT-116 [19]): 653 nM
- IC50 (Histone deacetylase 1 [20]): 156 nM
